Test results taken from article PMC11568214, “The impact of 9-azaglycophymine and phenylguanidine derivatives on the proliferation of various breast cancer cell lines in vitro and in vivo” (Scientific Reports, 2024).
“And” between values parts separate entries of the source, which are not always exact repeats. Identical values can stand only once. “Also recorded” adds a separate entry of the source. Like-named read-outs stand apart in the source and are kept apart here.

Legend:
[1] = tested on: MCF-7, MDA-MB-468, BT-474 and HCC1937 breast cancer cells; test: Fast screening / CV cell viability, breast cancer cell line panel; assay type: cell-based, human; design: reduction of cell viability: concentration or dose not given beside the values
Method: For initial testing of the cytotoxic effect of the available glycophymine compounds (Table S2), cells were treated with compound in three concentrations: 1, 10 and 50 µM. Cells were seeded in 96-well plates and allowed to adhere overnight. Then they were treated for 72 h under standard culture conditions. […] For IC50 determination, the compounds were tested at seven concentrations (0.78, 1.56, 3.13, 6.25, 12.5, 25 and 50 µM). Subsequently, the cell viability was determined by using the crystal violet (CV) assay. Moreover, the selected compounds were tested against the mouse breast cancer cell line 4T1 (TNBC) as well. The compounds were prepared initially to obtain a stock solution of 20 mM in DMSO. Later, the working solutions were prepared by mixing the required amount of DMSO stock with the optimal medium for each cell line. The DMSO concentration in the final solution was always maintained lower than 0.5% to avoid any DMSO-derived side effects.
For CV assays, after 72 h treatment, the treatment medium was discarded from the 96-well plates, and the cells were washed using 50 µL of PBS. Cells were fixed by adding 50 µL of 4% (v/v) paraformaldehyde (PFA) in PBS for 15 min at room temperature (RT). Afterwards, PFA was discarded, and the plates were dried for 15 min at RT. 50 µL of CV working solution (0.1% w/v CV in PBS) were added to the wells, followed by 15 min incubation at RT. Subsequently, the CV solution was discarded, and the plates were washed using aqua bidest. (ddH2O) to remove any remaining CV solution. The plates were left to dry overnight at RT, and then 50 µL of 33% (v/v) acetic acid in ddH2O were added to each well. Finally, the absorbance was measured at 570 nm by using a SpectraMax M5 plate reader (Molecular Devices, California, USA) and at 670 nm as background wavelength. […] Additionally, gefitinib, an approved EGFR inhibitor of the quinazoline family, was tested as anti-proliferative positive control. The data represent the mean ± standard deviation derived from three independent biological replicates. Dose–response curves were generated by four-parametric non-linear regression analysis using the GraphPad Prism software (version: 10.1, San Diego, CA, USA). Based on that, IC50 values and standard deviations were calculated for each replicate individually.

4T1 = test: Autophagy induction, acridine orange staining, flow cytometry; assay type: cell-based, mouse; design: key: ↑: induction; ↓: inhibition; ↔: no effect; settings: 4T1, IC50 for 72 h
Method: Cells were seeded in 6-well plates and incubated for 24 h under standard culture conditions. […] For the analyses of autophagy induction, the cell suspension was centrifuged for 3 min at 800 rpm, and the cell pellet was stained with 1 mL of AO working solution (1 µg/mL of AO in growth medium). Cells were incubated for 15 min under standard culture conditions. The cell suspension was centrifuged for 3 min at 800 rpm, and the cell pellet was washed with 1 mL of fresh PBS. Finally, all samples were analyzed by using flow cytometry (FACSAria III, BD Biosciences, New Jersey, USA).

[2] = Urine analysis with Multistix urine test stripes in the 4T1 in vivo study; design: species or system BALB/c mice; key to Glucose (urine) / Blood (urine): -: marker was not detectable in the respective urine sample; +: marker was detected
Method: On day 6, the mice were assigned to the study groups using a stratified randomization approach, ensuring that the mean tumor volumes were as similar as possible across all groups. […] The vehicle was 4% (v/v) DMSO in PBS, and the administration route was intraperitoneal (i.p.). The animals were treated daily on days 6–10 (starting from the day when tumors became palpable), 13–17 and day 20. Animals were visually examined daily, and urine samples were collected on the first and last day of treatment and analyzed by Multistix urine test stripes (Siemens Healthineers, Erlangen, Germany). On day 21 of the experiment, the mice were sacrificed using cervical dislocation. Following the sacrifice, the tumor diameters were measured using a caliper. The tumor volume (V) was then calculated using the formula V = L*W^2*0.52[36], where L represents the longest diameter and W the shortest diameter of the tumor.

O=c1[nH]c(Nc2ccc([N+](=O)[O-])cc2)nc2ccccc12 [Compound 19, 4′-nitro-9-aza-glycophymine]
IC50 ([1]; 72 h, CV assay, across cell lines, read-out: IC50 values against the breast cancer cell lines): 4 to 6 µM
concentration below which active in cytotoxicity screening ([1]; 72 h, initial screening): below 10 µM
anti-proliferative / cytotoxic effect ([1]; 72 h, screening at 1, 10 and 50 µM): significantly reduced cell proliferation
IC50 ([1]; Homo sapiens, 72 h, CV assay, across cell lines, read-out: IC50 values against the breast cancer cell lines): ~4 µM
IC50 ([1]; Homo sapiens, 72 h, read-out: IC50 values (National Cancer Institute guideline criterion)): < 30 µg/mL
reduction of cell viability ([1]; after 72 h of treatment, initial screening): ≥ 50%
Autophagy (4T1): ↔
Bilirubin (urine) ([2]; 5 mg/kg, Day 6, three mice): small
Blood (urine) ([2]; 5 mg/kg, Day 6, three mice): -
Ketones (urine) ([2]; 5 mg/kg, Day 6, three mice): 10 mg/dL
Leucocytes (urine) ([2]; 5 mg/kg, Day 6, three mice): 25 cells/µL
Specific gravity (urine) ([2]; 5 mg/kg, Day 6, three mice): 1.025 and 1.000 and 1.030
pH (urine) ([2]; 5 mg/kg, Day 6, three mice): 6 and 5
Bilirubin (urine) ([2]; 5 mg/kg, Day 20, three mice): small
Blood (urine) ([2]; 5 mg/kg, Day 20, three mice): -
Glucose (urine) ([2]; 5 mg/kg, Day 20, three mice): -
Ketones (urine) ([2]; 5 mg/kg, Day 20, three mice): 10 mg/dL
Leucocytes (urine) ([2]; 5 mg/kg, Day 20, three mice): 25 cells/µL
Proteins (urine) ([2]; 5 mg/kg, Day 20, three mice): 100 mg/dL
Specific gravity (urine) ([2]; 5 mg/kg, Day 20, three mice): 1.030 and 1.025
pH (urine) ([2]; 5 mg/kg, Day 20, three mice): 6
Bilirubin (urine) ([2]; 20 mg/kg, Day 6, three mice): small
Blood (urine) ([2]; 20 mg/kg, Day 6, three mice): -
Ketones (urine) ([2]; 20 mg/kg, Day 6, three mice): 10 mg/dL
Leucocytes (urine) ([2]; 20 mg/kg, Day 6, three mice): 25 cells/µL
Proteins (urine) ([2]; 20 mg/kg, Day 6, three mice): 30 mg/dL
Specific gravity (urine) ([2]; 20 mg/kg, Day 6, three mice): 1.025 and 1.030
Uroglobin (urine) ([2]; 20 mg/kg, Day 6, three mice): 4 mg/dL
pH (urine) ([2]; 20 mg/kg, Day 6, three mice): 6 and 5
Bilirubin (urine) ([2]; 20 mg/kg, Day 20, three mice): small; also recorded: moderate
Blood (urine) ([2]; 20 mg/kg, Day 20, three mice): -
Ketones (urine) ([2]; 20 mg/kg, Day 20, three mice): 10 mg/dL and 5 mg/dL
Specific gravity (urine) ([2]; 20 mg/kg, Day 20, three mice): 1.030 and 1.025
Uroglobin (urine) ([2]; 20 mg/kg, Day 20, three mice): 4 mg/dL and 8 mg/dL
pH (urine) ([2]; 20 mg/kg, Day 20, three mice): 5 and 6
